This note sets out measurements from US7728012B2, “Carboxamide compounds and their use as calpain inhibitors” (Abbott GmbH & Co. KG, priority 2006, dated 2010).

SMILES strings stand for the structures.

Format in all cases: biochemical
For experiment [1], the target named is T1, calpain-I isolated from human erythrocytes (Homo sapiens, UniProt P07384).
T1 construct: calpain-I—isolated from human erythrocytes; purchased Calbiochem 208713; host or cells: human erythrocytes (tissue isolate)
T1 sequence (P07384 1-714): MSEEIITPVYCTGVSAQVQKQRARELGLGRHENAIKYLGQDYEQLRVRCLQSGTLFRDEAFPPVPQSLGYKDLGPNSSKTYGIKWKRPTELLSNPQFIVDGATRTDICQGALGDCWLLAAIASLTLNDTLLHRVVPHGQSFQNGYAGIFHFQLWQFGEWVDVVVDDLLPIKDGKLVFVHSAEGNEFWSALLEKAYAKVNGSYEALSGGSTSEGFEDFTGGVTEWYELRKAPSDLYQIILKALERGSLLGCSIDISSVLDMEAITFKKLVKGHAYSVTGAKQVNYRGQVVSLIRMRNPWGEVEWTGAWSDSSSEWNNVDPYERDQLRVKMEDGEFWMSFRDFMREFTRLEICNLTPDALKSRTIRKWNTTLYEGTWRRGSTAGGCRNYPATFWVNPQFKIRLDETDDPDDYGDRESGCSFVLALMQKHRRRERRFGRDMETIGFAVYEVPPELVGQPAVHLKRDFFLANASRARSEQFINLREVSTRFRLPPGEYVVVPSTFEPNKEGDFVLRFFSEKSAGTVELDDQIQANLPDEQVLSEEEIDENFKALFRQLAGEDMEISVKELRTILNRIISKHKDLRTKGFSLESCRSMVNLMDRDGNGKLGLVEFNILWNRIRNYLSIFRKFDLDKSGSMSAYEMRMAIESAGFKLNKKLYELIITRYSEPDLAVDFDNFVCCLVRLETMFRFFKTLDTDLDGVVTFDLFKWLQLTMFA
T1 sequence (P04632 1-268 partner): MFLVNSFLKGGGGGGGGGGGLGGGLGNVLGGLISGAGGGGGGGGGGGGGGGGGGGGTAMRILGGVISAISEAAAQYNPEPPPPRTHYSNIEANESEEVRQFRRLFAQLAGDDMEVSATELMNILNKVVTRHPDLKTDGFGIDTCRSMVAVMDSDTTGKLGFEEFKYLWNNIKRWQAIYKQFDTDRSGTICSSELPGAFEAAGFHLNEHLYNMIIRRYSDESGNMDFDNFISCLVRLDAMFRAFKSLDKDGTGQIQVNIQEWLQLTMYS
Kind of experiment: Calpain I kinetic fluorescence enzyme inhibition assay. The conditions noted are these: apparent Ki from IC50 by Cheng-Prussoff; average of 2 to 4 dose-effect plots. As for the experimental part:
(§1) The following solutions and buffers were employed: • HBS (for 40 ml): 800 μl M HEPES; 2.16 ml 100 mM KCl; 4.8 ml 1M NaCl; 3.59 ml 5% glucose; 60 μl μM MgSO4; 400 μl 100 mM Na pyruvate, 28.19 ml water; pH 7.2-7.5. • lysis buffer (for 20 ml): 400 μl M Tris pH 8.2; 2.74 ml 1M NaCl; 520 μl 0.5M EDTA; 2 ml 10% triton X-100; 0.8 ml (=1:25) CompletePlus (1 tablet/2 ml H2O); 200 μl 100 mM Pefabloc; 13.34 ml water, pH 8.2. • TBST (10×) (for 1 l): 100 mM Tris (12.1 g); 1.5M NaCl (87 g); 1% Tween 20 (10 g), adjusted to pH 8. I Enzyme Inhibition In Vitro: • Testing for blockade of the corresponding enzymic activities was carried out by means of kinetic fluorescence assays (excitation 390 nm, emission 460 nm). • Apparent Ki values were calculated from the experimentally determined IC50 values by the Cheng-Prussoff relation assuming a reversible competitive enzyme inhibition. The Km values of the substrates used under the assay conditions indicated above were: 90 μM (Z-Phe-Arg-AMC, cathepsin B), 10 μM (Z-Gly-Pro-Arg-AMC, cathepsin K), 2 μM (Z-Phe-Arg-AMC, cathepsin L), and 30 μM (Z-Val-Val-Arg-AMC, cathepsin S). • The indicated Ki values are averages of the inhibition constants calculated on the basis of 2 to 4 independent dose-effect plots.
(§2) The following assays were used: • 1. Calpain I: • 20 nM calpain-I—isolated from human erythrocytes (Calbiochem #208713), 100 μM Suc-Leu-Tyr-AMC (Bachem #1-1355) as substrate in buffer with 62 mM imidazole, 0.3 mM CaCl2, 0.10% CHAPS, 0.05% BSA, 1 mM DTT at pH 7.3 and room temperature. • 2. Cathepsin B: • 0.25 nM cathepsin B—isolated from human liver (Calbiochem #219362), 100 μM Z-Phe-Arg-AMC (Bachem #I-1160) as substrate 50 mM MES, 2 mM EDTA, 0.05% Brij 35, 2.5 mM L-cysteine, pH 6.0, room temperature. • 3. Cathepsin K: • 3 nM cathepsin K—activated from recombinant human procathepsin K from E. coli (Calbiochem #342001), 10 μM Z-Gly-Pro-Arg-AMC (Biomol #P-142) as substrate in 50 mM MES, 2 mM EDTA, 0.05% Brij 35, 2.5 mM L-cysteine, pH 6.0, room temperature. • 4. Cathepsin L: • 1 nM cathepsin L—isolated from human liver (Calbiochem #219402), 2 μM Z-Phe-Arg-AMC (Bachem #1-1160) as substrate in 50 mM MES, 2 mM EDTA, 0.05% Brij 35, 2.5 mM L-cysteine, pH 6.0, room temperature. • 5. Cathepsin S: • 0.5 nM recombinant human cathepsin S from E. coli (Calbiochem #219343), 20 μM Z-Val-Val-Arg-AMC (Bachem #1-1540) as substrate in 50 mM MES, 2 mM EDTA, 0.05% Brij 35, 2.5 mM L-cysteine, pH 6.0, room temperature. • The results of the in vitro determination are indicated in Table 1. The following abbreviations are used in Table 1: • The “Calpain activity” column, ++ stands for a calpain Ki (Ki(calpain)) of ≦40 nM and + means: 40 nM<Ki(Calpain)≦100 nM. • The “Sel. cat. B” column indicates the Ki(cathepsin B)/Ki(calpain) ratio. In this connection, ++ means a Ki(cathepsin B)/Ki(calpain) ratio of ≧30 and + means 10≦Ki(cathepsin B)/Ki(calpain)<30. • The “Sel. cat. K” column indicates the Ki(cathepsin K)/Ki(calpain) ratio. In this connection, ++ means a Ki(cathepsin K)/Ki(calpain) ratio of ≧30 and + means 10≦Ki(cathepsin K)/Ki(calpain)<30. • The “Sel. cat. L” column indicates the Ki(cathepsin L)/Ki(calpain) ratio. In this connection, ++ means a Ki(cathepsin L)/Ki(calpain) ratio of ≧50 and + means 30≦Ki(cathepsin L)/Ki(calpain)<50. • The “Sel. cat. S” column indicates the Ki(cathepsin S)/Ki(calpain) ratio. In this connection, ++ means a Ki(cathepsin S)/Ki(calpain) ratio of ≧100 and + means 50≦Ki(cathepsin S)/Ki(calpain)<100.

The target in experiment [2] is T2, cathepsin L isolated from human liver (Homo sapiens, UniProt P07711).
T2 construct: cathepsin L—isolated from human liver; purchased Calbiochem 219402; host or cells: human liver (tissue isolate)
Briefly: Cathepsin L kinetic fluorescence enzyme inhibition assay. The conditions noted are these: selectivity ratio versus calpain I. As for the experimental part:
as §1, §2

Experiment [3] addresses T3, recombinant human cathepsin S (Homo sapiens, UniProt P25774).
T3 construct: purchased Calbiochem 219343; host or cells: E. coli
Kind of experiment: Cathepsin S kinetic fluorescence enzyme inhibition assay. The following applies: selectivity ratio versus calpain I. As for the experimental part: as §1, §2

T3 sequence (P25774 115-331): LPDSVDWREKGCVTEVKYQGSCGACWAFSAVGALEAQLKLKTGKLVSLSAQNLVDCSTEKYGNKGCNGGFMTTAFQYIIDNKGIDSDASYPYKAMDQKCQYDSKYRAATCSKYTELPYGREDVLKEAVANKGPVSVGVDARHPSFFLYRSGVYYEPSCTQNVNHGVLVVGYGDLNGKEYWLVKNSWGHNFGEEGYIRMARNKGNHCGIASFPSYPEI
T2 sequence (P07711 114-333): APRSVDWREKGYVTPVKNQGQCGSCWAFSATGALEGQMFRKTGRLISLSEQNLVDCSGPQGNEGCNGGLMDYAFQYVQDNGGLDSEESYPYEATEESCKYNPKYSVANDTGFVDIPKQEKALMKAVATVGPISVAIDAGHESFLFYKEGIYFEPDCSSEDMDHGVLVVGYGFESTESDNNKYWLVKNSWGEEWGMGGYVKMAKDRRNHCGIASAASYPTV

On to `CCCCC(NC(=O)c1cccnc1-n1cnc(-c2ccccc2)c1)C(=O)C(N)=O` (stereo not drawn) [Example 2, N-{1-[Amino(oxo)acetyl]pentyl}-2-(4-phenyl-1H-imidazol-1-yl)nicotinamide], for which the Ki in experiment [1] was at most 0.04 µM. The “Sel cat. L (Ki(cathepsin L)/Ki(calpain) ratio)” value in experiment [2] is reported as “++ (Ki(cathepsin L)/Ki(calpain) ratio of ≧50)”.

In the case of `NC(=O)C(=O)C(Cc1ccccc1)NC(=O)c1cccnc1-n1cnc(-c2ccc(Cl)cc2)c1` (stereo not drawn) [Example 9, N-(3-Amino-1-benzyl-2,3-dioxopropyl)-2-[4-(4-chlorophenyl)-1H-imidazol-1-yl]nicotinamide], the “Sel cat. S (Ki(cathepsin S)/Ki(calpain) ratio)” value in experiment [3] was “++ (Ki(cathepsin S)/Ki(calpain) ratio of ≧100)”. Further, in experiment [1], the Ki was at most 0.04 µM. For the same compound, the “Sel cat. L (Ki(cathepsin L)/Ki(calpain) ratio)” value in experiment [2] is “+ (30≦Ki(cathepsin L)/Ki(calpain)<50)”.

Turning to `COc1ccc(-c2cn(-c3ncccc3C(=O)NC(Cc3ccccc3)C(=O)C(N)=O)cn2)cc1` (stereo not drawn) [Example 13, N-(3-Amino-1-benzyl-2,3-dioxopropyl)-2-[4-(4-methoxyphenyl)-1H-imidazol-1-yl]nicotinamide], the “Sel cat. S (Ki(cathepsin S)/Ki(calpain) ratio)” value in experiment [3] is recorded as “+ (50≦Ki(cathepsin S)/Ki(calpain)<100)”. The Ki in experiment [1] lay in the range of 0.04 to 0.1 µM. In experiment [2], the “Sel cat. L (Ki(cathepsin L)/Ki(calpain) ratio)” value is on record as “++ (Ki(cathepsin L)/Ki(calpain) ratio of ≧50)”.

For `CCCCC(NC(=O)c1cccnc1-n1cnc(-c2ccc(N3CCOCC3)cc2)c1)C(=O)C(N)=O.Cl` (stereo not drawn) [Example 15, N-{1-[Amino(oxo)acetyl]pentyl}-2-[4-(4-morpholin-4-ylphenyl)-1H-imidazol-1-yl]nicotinamide hydrochloride], in experiment [3], the “Sel cat. S (Ki(cathepsin S)/Ki(calpain) ratio)” value was “+ (50≦Ki(cathepsin S)/Ki(calpain)<100)”. For the same compound, in experiment [1], the Ki is at most 0.04 µM. In experiment [2], the “Sel cat. L (Ki(cathepsin L)/Ki(calpain) ratio)” value is “++ (Ki(cathepsin L)/Ki(calpain) ratio of ≧50)”.

Regarding `CCCCC(NC(=O)c1cccnc1-n1cnc(-c2ccc(C(F)(F)F)cc2)c1)C(=O)C(N)=O.Cl` (stereo not drawn) [Example 17, N-{1-[Amino(oxo)acetyl]pentyl}-2-{4-[4-(trifluoromethyl)phenyl]-1H-imidazol-1-yl}nicotinamide hydrochloride], the “Sel cat. S (Ki(cathepsin S)/Ki(calpain) ratio)” value in experiment [3] was “+ (50≦Ki(cathepsin S)/Ki(calpain)<100)”. For the same compound, the Ki in experiment [1] is at most 0.04 µM. In experiment [2], the “Sel cat. L (Ki(cathepsin L)/Ki(calpain) ratio)” value is reported as “++ (Ki(cathepsin L)/Ki(calpain) ratio of ≧50)”.

`Cl.NC(=O)C(=O)C(Cc1ccccc1)NC(=O)c1cccnc1-n1cnc(-c2ccc(C(F)(F)F)cc2)c1` (stereo not drawn) [Example 18, N-(3-Amino-1-benzyl-2,3-dioxopropyl)-2-{4-[4-(trifluoromethyl)phenyl]-1H-imidazol-1-yl}nicotinamide hydrochloride]: in experiment [3], the “Sel cat. S (Ki(cathepsin S)/Ki(calpain) ratio)” value is “++ (Ki(cathepsin S)/Ki(calpain) ratio of ≧100)”. The Ki in experiment [1] is at most 0.04 µM. Besides, the “Sel cat. L (Ki(cathepsin L)/Ki(calpain) ratio)” value in experiment [2] is “+ (30≦Ki(cathepsin L)/Ki(calpain)<50)”.

In the case of `CCCCC(NC(=O)c1cc(Cl)cnc1-n1cnc(-c2ccccc2)c1)C(=O)C(N)=O.Cl` (stereo not drawn) [Example 24, N-{1-[Amino(oxo)acetyl]pentyl}-5-chloro-2-(4-phenyl-1H-imidazol-1-yl)nicotinamide hydrochloride], in experiment [1], the Ki was at most 0.04 µM. In experiment [2], the “Sel cat. L (Ki(cathepsin L)/Ki(calpain) ratio)” value is “+ (30≦Ki(cathepsin L)/Ki(calpain)<50)”.

Turning to `Cc1cn(-c2ncccc2C(=O)NC(Cc2ccccc2)C(=O)C(N)=O)nc1-c1ccccc1` (stereo not drawn) [Example 86, N-[3-Amino-2,3-dioxo-1-(phenylmethyl)propyl]-2-(4-methyl-3-phenyl-1H-pyrazol-1-yl)pyridine-3-carboxamide], the Ki in experiment [1] is at most 0.04 µM. Further, the “Sel cat. L (Ki(cathepsin L)/Ki(calpain) ratio)” value in experiment [2] is “++ (Ki(cathepsin L)/Ki(calpain) ratio of ≧50)”.

For `COCc1cn(-c2ncccc2C(=O)NC(Cc2ccccc2)C(=O)C(N)=O)nc1-c1ccc(F)cc1` (stereo not drawn) [Example 170, N-[3-Amino-2,3-dioxo-1-(phenylmethyl)propyl]-2-{3-(4-fluorophenyl)-4-[(methyloxy)methyl]-1H-pyrazol-1-yl}pyridine-3-carboxamide], the Ki in experiment [1] was 0.04 to 0.1 µM. The “Sel cat. L (Ki(cathepsin L)/Ki(calpain) ratio)” value in experiment [2] was “+ (30≦Ki(cathepsin L)/Ki(calpain)<50)”.

For `NC(=O)C(=O)C(Cc1ccccc1)NC(=O)c1cccnc1-n1cc(CN2CCCC2)c(-c2cccc(C(F)(F)F)c2)n1` (stereo not drawn) [Example 178, N-[3-Amino-2,3-dioxo-1-(phenylmethyl)propyl]-2-{4-(pyrrolidin-1-ylmethyl)-3-[3-(trifluoromethyl)phenyl]-1H-pyrazol-1-yl}pyridine-3-carboxamide], in experiment [3], the “Sel cat. S (Ki(cathepsin S)/Ki(calpain) ratio)” value is given as “++ (Ki(cathepsin S)/Ki(calpain) ratio of ≧100)”. Besides, the Ki in experiment [1] was in the range of 0.04 to 0.1 µM.

On to `NC(=O)C(=O)C(Cc1ccccc1)NC(=O)c1cccnc1-n1cc(COc2ccccc2)c(-c2ccc(F)cc2)n1` (stereo not drawn) [Example 179, N-[3-Amino-2,3-dioxo-1-(phenylmethyl)propyl]-2-{3-(4-fluorophenyl)-4-[(phenyloxy)methyl]-1H-pyrazol-1-yl}pyridine-3-carboxamide], for which the “Sel cat. S (Ki(cathepsin S)/Ki(calpain) ratio)” value in experiment [3] is recorded as “++ (Ki(cathepsin S)/Ki(calpain) ratio of ≧100)”. Further, the “Sel cat. L (Ki(cathepsin L)/Ki(calpain) ratio)” value in experiment [2] is recorded as “+ (30≦Ki(cathepsin L)/Ki(calpain)<50)”.
